Measurements taken from paper PMC9176062, “Phase Ib study of combinations of avadomide (CC‐122), CC‐223, CC‐292, and rituximab in patients with relapsed/refractory diffuse large B‐cell lymphoma” (EJHaem, 2022).
Each block holds one molecule with its values, some of them ahead of it.

Columns and labels:
[1] = Steady‐state plasma pharmacokinetics; type: in vivo; conditions: human, oral, CC‐223 + CC‐292 (arm C dose level 2, day 15)
Experimental: AEs were assessed according to the National Cancer Institute Common Terminology Criteria for AEs, version 4.03, up to 28 days after the last treatment. Blood samples for PK analysis were collected on days 15 to 28, predose, and at 1.5 and 3 h post‐dose on days 1 and 15 of cycle 1 for all dose cohorts. Additional blood samples were collected on day 15 from patients in dose level 2 of arm C to examine CC‐223 and CC‐292 steady‐state PK. Pharmacodynamic biomarkers of each novel agent were explored at baseline and cycle 1, day 1 (pre‐dose, and at 1.5 and 3 h) and cycle 1, day 15 (pre‐dose, and at 1.5 and 3 h), including cereblon modulation substrates in B and T cells in patients treated with CC‐122 and mTOR signaling pathway biomarkers (e.g., p4EBP1 and pAKT) in patients treated with CC‐223. Tumor assessments were performed at screening and at the end of even‐numbered cycles through cycle 6, then every three cycles through cycle 12, and every 6 months thereafter. Responses were assessed by the investigator per International Working Group 2007 criteria.
Safety analyses were performed on all patients who received ≥1 dose of study treatment (safety population). The PK population comprised all patients who took ≥1 dose of study treatment and had ≥1 measured drug concentration. […] The biomarker‐evaluable population comprised all patients who took ≥1 dose of study treatment and had ≥1 pharmacodynamic assessment. Safety and efficacy analyses were based on the safety population except where noted (PK and biomarkers). PK parameters were calculated using actual times relative to the most recent administration. The median duration of response (DOR) and median PFS were calculated per the Kaplan‐Meier method.
FIGURE S3 Summary of pharmacokinetic parameters and mean plasma concentration-time profiles of (A) CC-223 and (B) CC-292. Summary of pharmacokinetic parameters and mean plasma concentration-time profiles of (A) CC-223 and (B) CC-292. […] Data are geometric means (CV%) except for Tmax, for which medians (min, max) are presented.

patients with R/R DLBCL = assay: Treatment duration, modification, and exposure; type: in vivo
Experimental: CC‐122 hydrochloride, referred to here as CC‐122, as an active pharmaceutical ingredient in capsule (AIC) formulation, was administered orally once daily (QD). An alternate intermittent schedule of CC‐122 QD for five of every seven consecutive days (5/7), which improved tolerability and reduced the frequency and severity of neutropenia in a study of CC‐122 monotherapy in DLBCL, was also explored. CC‐292 was administered orally twice daily (BID) and CC‐223 was administered orally QD. Rituximab was administered on day 8 of cycle 1, day 1 of cycles 2–6, and day 1 of every third cycle thereafter. Patients in arm A received CC‐122 and CC‐223 with or without rituximab (starting at CC‐122 2 mg QD and CC‐223 20 mg QD), patients in arm B received CC‐122 plus CC‐292 with or without rituximab (starting at CC‐122 2 mg QD and CC‐292 500 mg BID), patients in arm C were treated with CC‐223 and CC‐292 (starting at CC‐223 20 mg QD and CC‐292 500 mg BID), and those in arm D received CC‐122 plus rituximab (starting at CC‐122 2 mg QD). In arm D, a CC‐122 3 mg formulated capsule was introduced with the same strength as CC‐122 3 mg AIC. Each dose level was cleared before the next was started. If unacceptable toxicity occurred at the initial dose level, dose reductions for CC‐122 (1.5 mg QD and 1 mg QD) and CC‐223 (15 mg QD) were allowed; no starting dose reductions for CC‐292 were planned. For arm A, the Safety Review Committee (SRC) determined which of the two drugs in the doublet to reduce. For arms B and D, the CC‐122 dose was reduced and for arm C, the CC‐223 dose was reduced. Assignment of patients to study arms was at the discretion of the investigator and based on slot availability per the study design.
Patients who experienced dose‐limiting toxicity (DLT) after receiving ≥1 dose of study treatment or those who received ≥80% of planned doses of CC‐122, CC‐223, CC‐292, and rituximab during cycle 1 without experiencing a DLT were considered DLT‐evaluable. If zero out of ≥3 or ≤1 out of six evaluable patients in a cohort experienced a DLT during cycle 1 in parallel dose cohorts, then dose escalation could occur. DLTs are defined in the Supplementary Materials; individual investigators performed response assessments and determined DLTs. The NTD was defined as the dose level at which ≥2 of six evaluable patients in a cohort experienced a DLT during cycle 1. […] During cycle 1, any adverse event (AE) that led to dose reduction was considered a DLT. Patients could resume CC‐122 at a reduced dose only if they recovered to grade ≤1 within 14 days of dose interruption; two dose reductions were allowed before the patient was withdrawn from the study. Dose reductions were permitted for CC‐122, CC‐223, and CC‐292; no dose reductions were allowed for rituximab, but treatment could be discontinued at the discretion of the investigator. […] For arms A, B, and D, CC‐122 dosing was modified to the intermittent 5/7‐day schedule based on SRC review and escalated until the MTD/RP2D was established. Treatment was given until disease progression, unacceptable toxicity, or patient/physician decision to withdraw consent.
^aTreatment duration defined as date of last derived dose – date of first dose + 1.
^bDefined as the ratio of actual dose received to planned dose over the treatment period.

R/R DLBCL = conditions: patients with a complete response at 3 months; cited from earlier work
[2] = Overall (all arms with the drug)

clearance ([1]; read-out: apparent plasma clearance (converted)): ~1170 mL/min | Vd ([1]; read-out: mean apparent volume of distribution): 334 L | Tmax ([1]; read-out: median Tmax): 1.5 h | half-life ([1]; read-out: terminal half‐life (converted)): ~3.3 h | ≥1 dose interruption (patients with R/R DLBCL; Arm B (Avadomide + CC-292 ± R)): 14 (51.9) n (%) | ≥1 dose interruption: Other (patients with R/R DLBCL; Arm B (Avadomide + CC-292 ± R)): 8 (29.6) n (%) | ≥1 dose interruption: Per protocol (patients with R/R DLBCL; Arm B (Avadomide + CC-292 ± R)): 1 (3.7) n (%) | ≥1 dose reduction (patients with R/R DLBCL; Arm B (Avadomide + CC-292 ± R)): 12 (44.4) n (%) | ≥1 dose reduction: Other (patients with R/R DLBCL; Arm B (Avadomide + CC-292 ± R)): 8 (29.6) n (%) | ≥1 dose reduction: Per protocol (patients with R/R DLBCL; Arm B (Avadomide + CC-292 ± R)): 1 (3.7) n (%) | ≥1 dose interruption (patients with R/R DLBCL; Arm C (CC-292 + CC-223)): 6 (42.9) n (%) | ≥1 dose interruption: Other (patients with R/R DLBCL; Arm C (CC-292 + CC-223)): 1 (7.1) n (%) | ≥1 dose interruption: Per protocol (patients with R/R DLBCL; Arm C (CC-292 + CC-223)): 1 (7.1) n (%) | ≥1 dose reduction (patients with R/R DLBCL; Arm C (CC-292 + CC-223)): 4 (28.6) n (%) | ≥1 dose reduction: Other (patients with R/R DLBCL; Arm C (CC-292 + CC-223)): 1 (7.1) n (%) | ≥1 dose reduction: Per protocol (patients with R/R DLBCL; Arm C (CC-292 + CC-223)): 1 (7.1) n (%) | ≥1 dose interruption (patients with R/R DLBCL; [2]): 20 (48.8) n (%) | ≥1 dose interruption: Other (patients with R/R DLBCL; [2]): 9 (22.0) n (%) | ≥1 dose interruption: Per protocol (patients with R/R DLBCL; [2]): 2 (4.9) n (%) | ≥1 dose reduction (patients with R/R DLBCL; [2]): 16 (39.0) n (%) | ≥1 dose reduction: Other (patients with R/R DLBCL; [2]): 9 (22.0) n (%) | ≥1 dose reduction: Per protocol (patients with R/R DLBCL; [2]): 2 (4.9) n (%) | patients with dose reductions of the drug (patients with R/R DLBCL; all patients who received the drug): 39.0%
Molecule: C=CC(=O)Nc1cccc(Nc2nc(Nc3ccc(OCCOC)cc3)ncc2F)c1 [CC‐292]
≥1 dose interruption: Adverse event (patients with R/R DLBCL; Arm B (Avadomide + CC-292 ± R)): 5 (18.5) n (%) | ≥1 dose reduction: Adverse event (patients with R/R DLBCL; Arm B (Avadomide + CC-292 ± R)): 5 (18.5) n (%) | ≥1 dose interruption: Adverse event (patients with R/R DLBCL; Arm C (CC-292 + CC-223)): 3 (21.4) n (%) | ≥1 dose reduction: Adverse event (patients with R/R DLBCL; Arm C (CC-292 + CC-223)): 3 (21.4) n (%) | ≥1 dose interruption: Adverse event (patients with R/R DLBCL; [2]): 8 (19.5) n (%) | ≥1 dose reduction: Adverse event (patients with R/R DLBCL; [2]): 8 (19.5) n (%)

Molecule: tisagenlecleucel
36‐month PFS (R/R DLBCL): 70%
